In assay [1] the test system is HPAF-II cells. The assay is described as follows: HPAF-II Cell Proliferation Assay. It counts as cell-based. To be noted: Homo sapiens, HPAF-II, HPAF-II cells; Table 2; read-out: Inhibition of cell proliferation in HPAF-II (IC50 class). Put shortly: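 Viability read-out was resazurin fluorescence (540 nm excitation, 600 nm emission), developed 18–24 h after a 115–120 h compound exposure of 750 HPAF-II cells per well in MEM/10% FBS at 37 °C. Compound was tested as a serial dilution in triplicate, and IC50 values were calculated.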

Assay [2] relates to Pa16c cells. Put plainly: Pa16c Cell Proliferation Assay. It counts as cell-based. The settings on record: Table 2, read-out: Inhibition of cell proliferation in Pa16c (IC50 class). Put shortly:
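Proliferation read-out: resazurin fluorescence (540 nm excitation, 600 nm emission) after an extra 18 to 24 h. Before that, compound dilution series (triplicate) stayed on 750 Pa16c cells/well in complete DMEM/10% FBS for 67 to 72 h at 37° C. IC50 values derived from the curves.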

The subject of assay [3] is HCT-116 cells. The assay is described as follows: HCT-116 Cell Proliferation Assay. The format is cell-based. To be noted: Homo sapiens, HCT-116, HCT-116 cells; Table 2; read-out: Inhibition of cell proliferation in HCT-116 (IC50 class). Put shortly: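 IC50 values come from resazurin fluorescence (540 nm excitation, 600 nm emission) added for 4 to 5 h after compound treatment. Treatment: serially diluted compound in triplicate on 375 HCT-116 cells per well in complete McCoy's 5A/10% FBS, 67 to 72 hours, 37 °C, 5% CO2.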

Assay [4] deals with T1, B-Raf kinase (SEQ ID NO: 1) (Homo sapiens, UniProt P15056).
T1 construct: GST (N); purchased Sigma
Put plainly: Biochemical Assay for B-Raf (coupled pyruvate kinase/lactate dehydrogenase assay). To be noted: 1 mM ATP; read-out: BRAF (inhibition of biochemical activity, IC50).

Assay [5] deals with MiaPaca-2 cells. The assay is described as follows: MiaPaca-2 Cell Proliferation Assay. It counts as cell-based. The settings on record: Homo sapiens, MIA PaCa-2, MiaPaca-2 cells; Table 2; read-out: Inhibition of cell proliferation in MiaPaca-2 (IC50 class). Put shortly:
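Viability was read as resazurin fluorescence (540 nm excitation, 600 nm emission) after 5–6 h with dye. Compounds were tested as serial dilutions in triplicate, with IC50 derived from the dose–response.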

Assay [6] deals with T2, C-Raf kinase (SEQ ID NO: 2) (Homo sapiens, UniProt P04049, Y340D/Y341D).
T2 construct: C-Raf residues 306-end; Y340D, Y341D with; GST (N); purchased Sigma
The assay is described as follows: Biochemical Assay for C-Raf (coupled pyruvate kinase/lactate dehydrogenase assay). To be noted: 1 mM ATP; read-out: CRAF (inhibition of biochemical activity, IC50).

Structures are written as SMILES.

T2 sequence (P04049 307-648 Y340D/Y341D): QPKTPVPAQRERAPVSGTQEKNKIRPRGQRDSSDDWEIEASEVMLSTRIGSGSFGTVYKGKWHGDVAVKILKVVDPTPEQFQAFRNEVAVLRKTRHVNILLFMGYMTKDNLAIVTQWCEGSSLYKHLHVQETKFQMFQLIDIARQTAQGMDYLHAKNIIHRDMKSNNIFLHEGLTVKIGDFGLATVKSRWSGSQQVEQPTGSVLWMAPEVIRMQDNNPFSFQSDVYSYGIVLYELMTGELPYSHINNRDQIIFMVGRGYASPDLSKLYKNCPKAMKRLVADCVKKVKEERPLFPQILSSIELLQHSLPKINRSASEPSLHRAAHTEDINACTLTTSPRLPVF
T1 sequence (P15056 416-766): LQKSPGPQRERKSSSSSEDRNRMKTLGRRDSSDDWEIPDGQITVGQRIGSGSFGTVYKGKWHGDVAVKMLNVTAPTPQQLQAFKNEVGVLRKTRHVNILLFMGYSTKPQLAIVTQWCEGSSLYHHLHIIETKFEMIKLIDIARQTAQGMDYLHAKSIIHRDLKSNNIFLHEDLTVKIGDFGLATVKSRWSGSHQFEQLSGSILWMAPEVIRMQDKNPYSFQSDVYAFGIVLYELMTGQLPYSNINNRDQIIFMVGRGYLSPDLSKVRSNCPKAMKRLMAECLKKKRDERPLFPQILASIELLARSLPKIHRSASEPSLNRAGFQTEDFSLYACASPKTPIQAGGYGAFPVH

As to `Cc1ccc(NC(=O)c2cc(C(F)(F)F)cnn2)cc1-c1cncc(-c2ccnc(NC(=O)C3CC3)c2)c1` [Example 39], the IC50 in assay [1] was 500 to 1000 nM; in assay [2] it was 100 to 500 nM; in assay [3], 100 to 500 nM; in assay [4], less than 100 nM; in assay [5] it was 500 to 1000 nM; in assay [6], less than 100 nM.
Regarding `Cc1ccc(NC(=O)c2cc(C(F)(F)F)cnn2)cc1-c1ccnc(-c2ccnc(NC(C)C)c2)c1` [Example 54], the IC50 lay in the range of 100 to 500 nM in assay [1]; 100 to 500 nM in assay [2]; 100 to 500 nM in assay [3]; 1000 to 10000 nM in assay [4]; 100 to 500 nM in assay [5]; 1000 to 10000 nM in assay [6].
For `Cc1ccc(NC(=O)c2cc(C(F)(F)F)cnn2)cc1-c1ccnc(-c2ccnc(NC(=O)C3(F)CC3)c2)c1` [Example 4, N-(3-(2′-(1-fluorocyclopropane-1-carboxamido)-[2,4′-bipyridin]-4-yl)-4-methylphenyl)-5-(trifluoromethyl)pyridazine-3-carboxamide], the IC50 in assay [1] is 100 to 500 nM; in assay [2], 100 to 500 nM; in assay [3] it was 100 to 500 nM; in assay [4], less than 100 nM; in assay [5], 100 to 500 nM; in assay [6] it was less than 100 nM.
For `Cc1ccc(NC(=O)c2cncc(C(C)(F)F)c2)cc1-c1cncc(-c2cc(NC(=O)C3CC3)ncn2)c1` [Example 109], the IC50 in assay [1] was 100 to 500 nM; in assay [2] it was 1000 to 10000 nM; in assay [3], less than 100 nM; in assay [4], less than 100 nM; in assay [5], 100 to 500 nM; in assay [6] it was less than 100 nM.
In the case of `CC(=O)Nc1cc(-c2cc(-c3cc(NC(=O)c4ccc(C(F)(F)F)nn4)ccc3C)ccn2)ccn1` [Example 13], the IC50 is less than 100 nM in assay [1]; less than 100 nM in assay [2]; less than 100 nM in assay [3]; 500 to 1000 nM in assay [4]; less than 100 nM in assay [5]; 100 to 500 nM in assay [6].
As to `CC(=O)Nc1cc(-c2cc(-c3cc(NC(=O)c4ccc(C(F)F)nc4)c(F)cc3C)ccn2)ccn1` [Example 20], the IC50 in assay [1] is less than 100 nM; in assay [2] it was 100 to 500 nM; in assay [3] it was 100 to 500 nM; in assay [4], less than 100 nM; in assay [5], less than 100 nM; in assay [6] it was less than 100 nM.
`Cc1ccc(NC(=O)c2cc(C(C)(F)F)cnn2)cc1-c1cncc(-c2cc(NC(=O)C3CC3)ncn2)c1` [Example 63]: the IC50 in assay [1] is 100 to 500 nM; in assay [2], 500 to 1000 nM; in assay [3], less than 100 nM; in assay [4], less than 100 nM; in assay [5], 100 to 500 nM; in assay [6], less than 100 nM.
With `CNCC(=O)Nc1cc(-c2cc(-c3cc(NC(=O)c4cc(C(F)(F)F)cnn4)ccc3C)ccn2)ccn1` [Example 88], the IC50 in assay [1] is 100 to 500 nM; in assay [2], 1000 to 10000 nM; in assay [3] it was 100 to 500 nM; in assay [4] it was less than 100 nM; in assay [5] it was 100 to 500 nM; in assay [6], less than 100 nM.
On to `Cc1ccc(NC(=O)c2ccc(C(F)F)nn2)cc1-c1ccnc(-c2ccnc(NC(=O)C3CC3)c2)c1` [Example 58], for which the IC50 was 100 to 500 nM in assay [1]; 1000 to 10000 nM in assay [2]; less than 100 nM in assay [3]; 500 to 1000 nM in assay [4]; 100 to 500 nM in assay [5]; 100 to 500 nM in assay [6].
For the compound `Cc1ccc(NC(=O)c2cc(C(F)(F)F)cnn2)cc1-c1ccnc(-c2ccnc(NC(=O)C3CCC3)c2)c1` [Example 8], the IC50 is less than 100 nM in assay [1]; less than 100 nM in assay [2]; 100 to 500 nM in assay [3]; less than 100 nM in assay [4]; 100 to 500 nM in assay [5]; less than 100 nM in assay [6].
For `Cc1ccc(NC(=N)c2cc(C3CC3)cnn2)cc1-c1ccnc(-c2ccnc(NC(=O)C3CC3)c2)c1` [Example 87], the IC50 in assay [1] was 1000 to 10000 nM; in assay [2], 1000 to 10000 nM; in assay [3], 1000 to 10000 nM; in assay [4] it was less than 100 nM; in assay [5], 1000 to 10000 nM; in assay [6], less than 100 nM.
For the compound `Cc1ccc(NC(=O)c2cc(C(F)(F)F)cnn2)cc1-c1ccnc(-c2ccnc(N)c2)c1` [Example 2, N-(3-(2′-amino-[2,4′-bipyridin]-4-yl)-4-methylphenyl)-5-(trifluoromethyl)pyridazine-3-carboxamide], the IC50 in assay [1], in assay [2], in assay [3], in assay [4], in assay [5] and in assay [6] was less than 100 nM each time.
Take `Cc1ccc(NC(=O)c2cc(C(F)(F)F)cnn2)cc1-c1cncc(-c2cc(NC=O)ncn2)c1` [Example 124]: the IC50 was 500 to 1000 nM in assay [1]; 500 to 1000 nM in assay [2]; 500 to 1000 nM in assay [3]; less than 100 nM in assay [4]; 100 to 500 nM in assay [5]; less than 100 nM in assay [6].
Turning to `COc1cnnc(C(=O)Nc2ccc(C)c(-c3ccnc(-c4ccnc(NC(=O)C5CC5)c4)c3)c2)c1` [Example 49], the IC50 was 100 to 500 nM in assay [1]; 1000 to 10000 nM in assay [2]; 100 to 500 nM in assay [3]; less than 100 nM in assay [4]; 500 to 1000 nM in assay [5]; less than 100 nM in assay [6].
As to `Cc1ccc(NC(=O)c2cc(C(F)(F)F)cnn2)cc1-c1cc(N[C@H](C)CO)cc(-c2cc(NC(=O)C3CC3)ncn2)c1` [Example 123], the IC50 is 100 to 500 nM in assay [1]; less than 100 nM in assay [2]; 100 to 500 nM in assay [3]; less than 100 nM in assay [4]; 100 to 500 nM in assay [5]; less than 100 nM in assay [6].
For the compound `Cc1ccc(NC(=O)c2cc(C(F)(F)F)cnn2)cc1-c1ccnc(-c2ccoc2)c1` [Example 145], the IC50 in assay [1], in assay [2], in assay [3], in assay [4], in assay [5] and in assay [6] was 100 to 500 nM throughout.
For `Cc1ccc(NC(=O)c2cnc(C(F)(F)F)cn2)cc1-c1ccnc(-c2ccnc(NC(=O)C3CC3)c2)c1` [Example 56], the IC50 is 1000 to 10000 nM in assay [1]; 1000 to 10000 nM in assay [2]; 500 to 1000 nM in assay [3]; 100 to 500 nM in assay [4]; 500 to 1000 nM in assay [5]; less than 100 nM in assay [6].
Regarding `Cc1ccc(NC(=O)c2cc(C(C)(F)F)cnn2)cc1-c1ccnc(-c2cscn2)c1` [Example 143], the IC50 in assay [1] was 100 to 500 nM; in assay [2] it was 1000 to 10000 nM; in assay [3], 100 to 500 nM; in assay [4], 1000 to 10000 nM; in assay [5], 100 to 500 nM; in assay [6], 1000 to 10000 nM.
Regarding `Cc1ccc(NC(=O)c2cncc(C(F)(F)F)n2)cc1-c1ccnc(-c2ccnc(NC(=O)C3CC3)c2)c1` [Example 84], the IC50 in assay [1] is 1000 to 10000 nM; in assay [2] it was 1000 to 10000 nM; in assay [3], 1000 to 10000 nM; in assay [4], less than 100 nM; in assay [5], 1000 to 10000 nM; in assay [6], less than 100 nM.
